Molecular target: T1, Gonadotropin-releasing hormone receptor (Homo sapiens, UniProt P30968)
T1 sequence (P30968 whole entry): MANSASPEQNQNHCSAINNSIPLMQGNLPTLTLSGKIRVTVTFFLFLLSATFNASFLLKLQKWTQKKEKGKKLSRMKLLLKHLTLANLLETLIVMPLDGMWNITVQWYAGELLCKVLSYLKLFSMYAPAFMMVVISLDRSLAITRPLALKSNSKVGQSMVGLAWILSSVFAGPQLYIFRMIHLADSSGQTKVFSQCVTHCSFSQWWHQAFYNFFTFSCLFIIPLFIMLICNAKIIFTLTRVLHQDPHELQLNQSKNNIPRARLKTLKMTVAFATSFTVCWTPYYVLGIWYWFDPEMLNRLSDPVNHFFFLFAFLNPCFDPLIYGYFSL
Test: Inhibitory Activity Assay
Procedure: GnRH/HEK293 (human embryonic kidney cell 293) cultured cells in the logarithmic growth phase were washed with DPBS (Dulbecco's phosphate buffered saline) buffer, and an appropriate amount of 0.05% EDTA (ethylenediaminetetraacetic acid)-trypsin was added. The cells were placed in a carbon dioxide incubator at 37° C. for digestion for 1-2 minutes, and then removed from the incubator. A medium was added to the cells to terminate the digestion. Cells were dispersed by repeated pipetting and harvested by centrifugation. The cells were seeded into a 384-well Poly-Lysine-Coated. Cell Plate at a density of 20,000 cells per well. […] The fluorescence signal was read. Then 10 μL of the reference compound as an agonist was added, and the fluorescent signal was read. […] The fluorescent signal was read. Then 10 μL of agonist with a concentration of 6×EC50 was added to the cell plate and the fluorescent signal was read.IC50 of the compound to inhibit the calcium flow of gonadotropin-releasing hormone receptor, i.e., the drug concentration when the Ca2+ flow was inhibited by half in the cells stably expressing the GnRH receptor, was calculated. The IC50 of the drug was calculated by GraphPad Prism 5.0 software.

For `Cc1c(F)ccc2c1COc1cc(C3C(=O)Nc4csc(C(=O)O)c4C3=O)c(F)cc1OCCCO2` (configuration not stated) [US20240158413, Compound 1], the IC50 was 3.2 nM.
In the case of `O=C(O)c1scc2c1C(=O)C(c1cc3c(cc1F)OCC1(CC1)COc1ccc(F)c(F)c1CO3)C(=O)N2` (configuration not stated) [US20240158413, Compound 2], the IC50 is reported as 9.2 nM.

Reference: BindingDB's records for patent US20240158413 (Soter Biopharma, 2024)
